Here are results for 27 compounds from patent publication US20160331708A1 (priority 2014, published 2016).

The test system of this test is Bacillus subtilis 168. Description: Antibiotic MIC tests in microtiter plates. Particulars: for effect on the MIC of streptomycin: related compounds tested for synergistic effect with streptomycin (text, Table 4 title); for MIC with anthranilic acid (2.2 mM): antibiotic against B. subtilis in the presence of anthranilic acid (2.2 mM); for Effect: effect of anthranilic acid (2.2 mM) on MIC of the antibiotic against B. subtilis; for effect on MIC value when combined with anthranilic acid: anthranilic acid at around 2 mM, B. subtilis.

Setting [1] is: Bacillus subtilis, 168, compound alone (Table 4).
The mark [2] stands for this setting: antibiotic alone against B. subtilis (Table 2).
The mark [3] stands for this setting: antibiotic alone against B. subtilis (Table 3).
The mark [4] stands for this setting: Bacillus subtilis, 168, antibiotic alone against B. subtilis (Table 2).
Setting [5] is: Bacillus subtilis, 168, antibiotic alone against B. subtilis (Table 3).

Converted amounts (≈) assume the structure as drawn. “And” between values parts separate entries of the source, which are not always exact repeats. Identical values can stand only once. Counter-ions that a name gives are not always drawn. Like-named read-outs stand apart in the source and are kept apart here. Numbered stars: 1 amine (or outer) side, 2 acyl side, 3 side chain; on linkers, the order of the positions; unused ones are H or OH. Bridge positions count the residues as written; N and C are the ends. Square brackets hold non-standard residues; d marks the D form. Peptide text beside a SMILES is read from it. I, II: the chains in the order shown. Actinocin(9to1) = Cc1c2oc3c(C)ccc(C(=O)[*:1])c3nc-2c(C(=O)[*:2])c(N)c1=O; NMeV = CN[C@H](C(=O)O)C(C)C; Sar = CNCC(=O)O

Regarding `O=C(O)[C@@H]1CCCN1` (racemic) [D,L-Proline], the MIC (compound alone (Table 4)) was above 750 µg/mL.

`O=C(O)c1cccc(O)c1O` [2,3-dihydroxybenzoic acid]: the “effect on the MIC of streptomycin” value was “duplication of the MIC value”. In addition, under setting [1], the MIC was 750 µg/mL (≈ 4870 µM).

`Nc1cc(N)cc(C(=O)O)c1` [3,5-diaminobenzoic acid] had an MIC under setting [1] above 750 µg/mL.

With `Nc1cccc(C(=O)O)c1` [3-aminobenzoic acid], under setting [1], the MIC was 750 µg/mL (≈ 5470 µM).

Under setting [1], `Nc1ccc(C(=O)O)cc1` [4-aminobenzoic acid] came in with an MIC of 750 µg/mL (≈ 5470 µM).

With `Cc1c2oc3c(C)ccc(C(=O)N[C@@H]4C(=O)N[C@H](C(C)C)C(=O)N5CCC[C@H]5C(=O)N(C)CC(=O)N(C)[C@@H](C(C)C)C(=O)O[C@@H]4C)c3nc-2c(C(=O)N[C@@H]2C(=O)N[C@H](C(C)C)C(=O)N3CCC[C@H]3C(=O)N(C)CC(=O)N(C)[C@@H](C(C)C)C(=O)O[C@@H]2C)c(N)c1=O` [Actinomycin D] (I: T[dV]P[Sar][NMeV] / II: T[dV]P[Sar][NMeV]; ester I:1-I:C, II:1-II:C; linker I:N-II:N via Actinocin(9to1)), the “MIC with anthranilic acid (2.2 mM)” value was found to be 0.156 µg/mL and the Effect result is listed as “No effect”. This compound registered an MIC under setting [2] of 0.156 µg/mL (≈ 0.124 µM). Besides, the MIC under setting [3] was found to be 0.156 µg/mL (≈ 0.124 µM).

Turning to `CC1(C)S[C@@H]2[C@H](NC(=O)[C@H](N)c3ccccc3)C(=O)N2[C@H]1C(=O)O` [Ampicillin (sodium salt), Ampicillin], the MIC under setting [4] was 0.0153 µg/mL.

For the compound `NC(=O)c1ccccc1N` [Anthranilic acid amide], the MIC under setting [1] was above 1500 µg/mL.

In the case of `CN[C@@H]1[C@@H](O[C@H]2O[C@H](CO)[C@@H](N)[C@H](O)[C@H]2O)OC2C[C@@H](N)[C@@H](O[C@H]3[C@H](O)[C@@H](O)[C@H](N)C[C@@H]3N)OC2[C@@H]1O` (stereo partly shown) [Apramycin (sulfate), Apramycin], the “MIC with anthranilic acid (2.2 mM)” value was 1.953 µg/mL and the Effect entry is reported as “No effect”. The compound also displayed an MIC under setting [4] of 1.95 µg/mL. Moreover, the MIC under setting [5] was 1.95 µg/mL.

Take `Oc1ccccc1O` [Catechol]: the “effect on the MIC of streptomycin” value was “duplication of the MIC value”. The compound also returned an MIC under setting [1] of 750 µg/mL (≈ 6810 µM).

As for `CC1=C(C(=O)O)N2C(=O)[C@@H](NC(=O)[C@H](N)c3ccccc3)[C@H]2SC1` [Cephalexin (1H2O), Cephalexin], the Effect entry is reported as “Lower MIC”. Further, the MIC under setting [4] worked out at 0.122 µg/mL (≈ 0.351 µM). Besides, under setting [5], the MIC turned out to be 0.122 µg/mL (≈ 0.351 µM).

As to `O=C(N[C@H](CO)[C@H](O)c1ccc([N+](=O)[O-])cc1)C(Cl)Cl` [Chloramphenicol], the “MIC with anthranilic acid (2.2 mM)” value turned out to be 125 µg/mL and the Effect result is “No effect”. The compound further had an MIC under setting [4] of 125 µg/mL (≈ 387 µM). Under setting [5], this compound yielded an MIC of 125 µg/mL (≈ 387 µM).

In the case of `CCC[C@@H]1C[C@@H](C(=O)N[C@@H]([C@H]2O[C@H](SC)[C@H](O)[C@@H](O)[C@H]2O)[C@H](C)Cl)N(C)C1` [Clindamycin (HCl), Clindamycin], the “MIC with anthranilic acid (2.2 mM)” value came to 0.244 µg/mL. The compound further displayed an MIC under setting [4] of 0.488 µg/mL. For the same compound, the MIC under setting [5] came out at 0.488 µg/mL.

Compound `CC[C@H]1OC(=O)[C@H](C)[C@@H](O[C@H]2C[C@@](C)(OC)[C@@H](O)[C@H](C)O2)[C@H](C)[C@@H](O[C@@H]2O[C@H](C)C[C@H](N(C)C)[C@H]2O)[C@](C)(O)C[C@@H](C)C(=O)[C@H](C)[C@@H](O)[C@]1(C)O` [Erythromycin] had an MIC under setting [4] of 0.122 µg/mL (≈ 0.166 µM).

`NC[C@H]1O[C@H](O[C@H]2[C@H](O)[C@@H](O[C@H]3O[C@H](CO)[C@@H](O)[C@H](N)[C@H]3O)[C@H](N)C[C@@H]2N)[C@H](O)[C@@H](O)[C@@H]1O` [Kanamycin (sulfate), Kanamycin]: the “MIC with anthranilic acid (2.2 mM)” value stood at 31.2 µg/mL. The compound further returned an MIC under setting [4] of 125 µg/mL. Moreover, under setting [5], the MIC is 125 µg/mL.

As for `O=C1O[C@H]([C@@H](O)CO)C(O)=C1O` [L-Ascorbic acid (sodium salt), L-Ascorbic acid], the MIC under setting [1] was above 750 µg/mL.

Consider `O=C(O)[C@@H]1CCCN1` [L-Proline], for which, under setting [1], the MIC is above 1500 µg/mL.

The compound `CCn1cc(C(=O)O)c(=O)c2ccc(C)nc21` [Nalidixic acid] showed an MIC under setting [4] of 3.1 µg/mL (≈ 13.3 µM).

Take `CC1(C)S[C@@H]2[C@H](NC(=O)Cc3ccccc3)C(=O)N2[C@H]1C(=O)[O-].[Na+]` [Penicillin G (sodium salt), Penicillin G]: the “effect on MIC value when combined with anthranilic acid” value (from here on “effect on MIC value when combined”) is “decreased”, the “MIC with anthranilic acid (2.2 mM)” value came to 0.0031 µg/mL and the Effect entry was “Lower MIC”. The compound further showed an MIC under setting [2] of 0.0062 µg/mL. Under setting [3], this compound had an MIC of 0.0062 µg/mL.

Consider `CO[C@H]1/C=C/O[C@@]2(C)Oc3c(C)c(O)c4c(O)c(c(/C=N/N5CCN(C)CC5)c(O)c4c3C2=O)NC(=O)/C(C)=C\C=C\[C@H](C)[C@H](O)[C@@H](C)[C@@H](O)[C@@H](C)[C@H](OC(C)=O)[C@@H]1C` [Rifampin], for which the “MIC with anthranilic acid (2.2 mM)” value is 0.0122 µg/mL and the Effect entry was “No effect”. The same compound gave an MIC under setting [4] of 0.0122 µg/mL (≈ 0.0148 µM). Under setting [5], this compound showed an MIC of 0.0122 µg/mL (≈ 0.0148 µM).

For the compound `[H]/N=C(/N)N[C@H]1[C@H](O)[C@@H](O)[C@H](O[C@@H]2O[C@@H](C)[C@](O)(C=O)[C@H]2O[C@@H]2O[C@@H](CO)[C@H](O)[C@@H](O)[C@@H]2NC)[C@@H](N/C(N)=N\[H])[C@@H]1O` [Streptomycin (sulfate), Streptomycin], the “effect on MIC value when combined” value is listed as “decreased”, the “MIC with anthranilic acid (2.2 mM)” value stood at 5 µg/mL and the Effect result is “Lower MIC”. Further, for the setting “75 μg/μl anthranilate”, the MIC of streptomycin is 15000 µg/mL and the “reduction of MIC of streptomycin” value is 50%. The same compound showed an MIC under setting [4] of 31.2 µg/mL. The MIC under setting [5] came to 31.2 µg/mL. This compound returned an MIC under setting [1] of 31.2 µg/mL. For the setting “Bacillus subtilis, 168, read-out: MIC value of streptomycin, Bacillus subtilis, no anthranilic acid (FIG. 3)”, the MIC amounted to 31.2 µg/mL. Also, the MIC (Bacillus subtilis, 168, read-out: MIC value of streptomycin, at 300 μg/ml anthranilic acid (FIG. 3)) stood at 5 µg/mL. Also, where the note is “Bacillus subtilis, no anthranilic acid (FIG. 3)”, the “MIC value of streptomycin” value is 30 µg/mL and 31.25 ± 0.05 µg/mL. Also, under “anthranilate at concentrations of 300 μg/μl and higher”, the “reduction in the MIC of streptomycin” value is listed as “six-fold”. Besides, the “MIC value of Streptomycin reduced by a factor” value (anthranilic acid about 50 μg/ml in the culture) worked out at 2. Further, the “MIC value of Streptomycin reduced by a factor” value (anthranilic acid about 150 μg/ml in the culture) is on record as 3. Further, under “anthranilic acid about 300 μg/ml in the culture”, the “MIC value of Streptomycin reduced by a factor” value is on record as 6. For the same compound, the “decrease of streptomycin MIC (times)” value (combined with anthranilic acid, concentration dependent) is given as “up to 6 times”.

Consider `CN[C@H](CC(C)C)C(=O)N[C@H]1C(=O)N[C@@H](CC(N)=O)C(=O)N[C@H]2C(=O)N[C@H]3C(=O)N[C@H](C(=O)N[C@H](C(=O)O)c4cc(O)cc(O)c4-c4cc3ccc4O)[C@H](O)c3ccc(c(Cl)c3)Oc3cc2cc(c3O[C@@H]2O[C@H](CO)[C@@H](O)[C@H](O)[C@H]2O[C@H]2C[C@](C)(N)[C@H](O)[C@H](C)O2)Oc2ccc(cc2Cl)[C@H]1O` [Vancomycin (HCl), Vancomycin], for which the “effect on MIC value when combined” value is reported as “No synergistic effect”, the “MIC with anthranilic acid (2.2 mM)” value amounted to 0.156 µg/mL and the Effect entry was “No effect”. In addition, the MIC (Bacillus subtilis, 168) was determined as 0.156 µg/mL. In addition, the MIC under setting [3] came to 0.156 µg/mL.

Turning to Actinomycin C, the “effect on MIC value when combined” value is “decreased”, the “MIC with anthranilic acid (2.2 mM)” value came out at 0.039 µg/mL and the Effect result was “Lower MIC”. This compound came in with an MIC under setting [2] of 0.078 µg/mL. Under setting [3], this compound came in with an MIC of 0.078 µg/mL.

As for Actinomycin C2, under setting [2], the MIC came out at 0.25 µg/mL.

As for Benzoic acid, the MIC (compound alone (Table 4)) was above 750 µg/mL.

As for Gentamycin [Gentamycin (sulfate)], the “effect on MIC value when combined” value was “decreased”, the “MIC with anthranilic acid (2.2 mM)” value is 0.625 µg/mL and the Effect entry is “Lower MIC”. Under setting [2], this compound gave an MIC of 1.25 µg/mL. Under setting [3], this compound returned an MIC of 1.25 µg/mL.

On to Neomycin [Neomycin (sulfate)], for which the “effect on MIC value when combined” value was “decreased”, the “MIC with anthranilic acid (2.2 mM)” value is 15.6 µg/mL and the Effect entry was “Lower MIC”. The compound also yielded an MIC under setting [2] of 62.5 µg/mL. Under setting [3], the MIC was 62.5 µg/mL.
